Read-outs that look alike come from different tables or passages of the source.
Tests used:
[1] = cited from earlier work; for normal baseline AUC: mean AUC0-24 (% CV) at steady state / normal baseline Cmax: mean Cmax (% CV), steady state: in vivo
[2] = AUC and Cmax target safe levels of CYP3A4 substrate drugs (Table 1)
Text: In various embodiments, the “Target safe levels” are non-limiting examples of the upper limit of fold change or percent of baseline where in some embodiments the benefits of treating the patient for the condition or disease for which the CYP3A4 substrate drug is indicated outweigh the risks associated with the effects of a drug-drug interaction. […] For purposes of the present methods, the blood plasma levels measured during co-administration of the CYP3A4 substrate drug with […] may be used to estimate the posaconazole DDI decay curve, e.g., using equation 1.

CYP3A4 = CYP3A4 (Homo sapiens, UniProt P08684); settings: cited from earlier work
CYP3A4, sequence (P08684 whole entry, the tested form may be a part): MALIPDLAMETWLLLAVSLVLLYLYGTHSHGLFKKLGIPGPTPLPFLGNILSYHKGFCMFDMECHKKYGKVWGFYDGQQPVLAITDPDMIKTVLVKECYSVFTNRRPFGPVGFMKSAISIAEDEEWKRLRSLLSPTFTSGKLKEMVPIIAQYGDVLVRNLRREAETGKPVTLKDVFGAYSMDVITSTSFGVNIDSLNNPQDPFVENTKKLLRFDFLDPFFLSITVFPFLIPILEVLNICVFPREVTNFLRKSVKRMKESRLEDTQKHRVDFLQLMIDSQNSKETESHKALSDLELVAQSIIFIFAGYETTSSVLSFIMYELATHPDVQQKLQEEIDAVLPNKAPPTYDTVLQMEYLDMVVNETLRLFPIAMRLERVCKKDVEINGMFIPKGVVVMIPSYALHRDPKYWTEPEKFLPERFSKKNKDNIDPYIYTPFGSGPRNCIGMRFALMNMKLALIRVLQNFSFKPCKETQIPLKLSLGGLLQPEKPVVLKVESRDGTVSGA

[3] = single 90 min infusion of irinotecan 125 mg/m^2, AUC0-24
[4] = single 90 min infusion of irinotecan 125 mg/m^2
[5] = single 90 min infusion of irinotecan 340 mg/m^2, AUC0-24
[6] = single 90 min infusion of irinotecan 340 mg/m^2
[7] = co-administered with a strong CYP3A4 inhibitor (posaconazole, itraconazole, ritonavir, or ketoconazole)
[8] = upper limit where benefits outweigh risks, approximation, can vary by about ±25%

## O=C(O[C@H]1CN2CCC1CC2)N1CCc2ccccc2[C@@H]1c1ccccc1 [solifenacin succinate]
[1]; 5 mg
  normal baseline AUC: mean AUC0-24 (% CV) at steady state: about 463 (37%) ng*h/mL
  normal baseline Cmax: mean Cmax (% CV), steady state: 24.01 (30%) ng/mL
[1]; 10 mg
  normal baseline AUC: mean AUC0-24 (% CV) at steady state: about 749 (22%) ng*h/mL
  normal baseline Cmax: mean Cmax (% CV), steady state: 40.61 (21%) ng/mL

## Cc1c(C(=O)Nc2ccc(N3C[C@@H](C)O[C@@H](C)C3)nc2)cccc1-c1ccc(OC(F)(F)F)cc1 [sonidegib]
[2]; human
  Cmax target safe level, Percent of baseline: 0%
CYP3A4; in vivo
  AUC co-administration levels, Fold change: 2.2 fold
  AUC co-administration levels, Percent of baseline: 220%
  Cmax co-administration levels, Fold change: 1.5 fold
  Cmax co-administration levels, Percent of baseline: 150%

## COC(=O)N[C@H](C(=O)N1CCC[C@H]1c1nc(-c2ccc3c(c2)O[C@@H](c2ccccc2)n2c-3cc3cc(-c4c[nH]c([C@@H]5CCCN5C(=O)[C@@H](NC(=O)OC)C(C)C)n4)ccc32)c[nH]1)C(C)C [elbasvir]
CYP3A4; in vivo
  AUC co-administration levels, Fold change: EBR: 1.8; fold
  AUC co-administration levels, Percent of baseline: 180%;
  Cmax co-administration levels, Fold change: 1.29; fold
  Cmax co-administration levels, Percent of baseline: 129%;

## CCc1c2c(nc3ccc(O)cc13)-c1cc3c(c(=O)n1C2)COC(=O)[C@]3(O)CC [SN-38]
[1]; [3]
  Baseline AUC (% CV): 229 ± 108 ng·h/mL
[1]; [4]
  Baseline Cmax (% CV): 26.3 ± 11.9 ng/mL
[1]; [5]
  Baseline AUC (% CV): 474 ± 245 ng·h/mL
[1]; [6]
  Baseline Cmax (% CV): 56.0 ± 28.2 ng/mL

## CCc1c2c(nc3ccc(OC(=O)N4CCC(N5CCCCC5)CC4)cc13)-c1cc3c(c(=O)n1C2)COC(=O)[C@]3(O)CC [irinotecan]
[1]; [3]
  Baseline AUC (% CV): 10,200 ng*h/mL
[1]; [4]
  Baseline Cmax (% CV): 1,660 ± 797 ng/ml
[1]; [5]
  Baseline AUC (% CV): 20,604 ng*h/mL
[1]; [6]
  Baseline Cmax (% CV): 3,392 ± 874 ng/ml

## COc1cc(Nc2c(C#N)cnc3cc(OCCCN4CCN(C)CC4)c(OC)cc23)c(Cl)cc1Cl [bosutinib]
CYP3A4; in vivo
  AUC co-administration levels, Fold change: 2 fold
  AUC co-administration levels, Percent of baseline: 200%
  Cmax co-administration levels, Fold change: 1.5 fold
  Cmax co-administration levels, Percent of baseline: 150%

## CC1(C)CCC(CN2CCN(c3ccc(C(=O)NS(=O)(=O)c4ccc(NCC5CCOCC5)c([N+](=O)[O-])c4)c(Oc4cnc5[nH]ccc5c4)c3)CC2)=C(c2ccc(Cl)cc2)C1 [venetoclax]
CYP3A4; in vivo
  AUC co-administration levels, Fold change: 1.78 fold
  AUC co-administration levels, Percent of baseline: 178%
  Cmax co-administration levels, Fold change: 1.06 fold
  Cmax co-administration levels, Percent of baseline: 106%

## O=C(c1cc(Cc2n[nH]c(=O)c3ccccc23)ccc1F)N1CCN(C(=O)C2CC2)CC1 [olaparib]
CYP3A4; in vivo
  AUC co-administration levels, Fold change: 2.2 fold
  AUC co-administration levels, Percent of baseline: 220%
  Cmax co-administration levels, Fold change: 1.1 fold
  Cmax co-administration levels, Percent of baseline: 110%

## O=c1[nH]c2ccccc2n1CCN1CCN(c2cccc(C(F)(F)F)c2)CC1 [flibanserin]
CYP3A4; in vivo
  AUC co-administration levels, Fold change: 1.4 fold
  AUC co-administration levels, Percent of baseline: 140%
  Cmax co-administration levels, Fold change: 1.1 fold
  Cmax co-administration levels, Percent of baseline: 110%

## N#C[C@@H]1C[C@@H]2C[C@@H]2N1C(=O)[C@@H](N)C12CC3CC(CC(O)(C3)C1)C2 [saxagliptin]
CYP3A4; in vivo
  AUC co-administration levels, Fold change: 3.67 fold
  AUC co-administration levels, Percent of baseline: 367%
  Cmax co-administration levels, Fold change: 2.44 fold
  Cmax co-administration levels, Percent of baseline: 244%

## CCC(=O)O[C@]1(C(=O)SCF)[C@H](C)C[C@H]2[C@@H]3C[C@H](F)C4=CC(=O)C=C[C@]4(C)[C@@]3(F)[C@@H](O)C[C@@]21C [fluticasone propionate]
CYP3A4; [7]
  AUC co-administration levels, Fold change: 1.9; fold
  AUC co-administration levels, Percent of baseline: 190%;

## CCN1CCN(Cc2ccc(Nc3ncc(F)c(-c4cc(F)c5nc(C)n(C(C)C)c5c4)n3)nc2)CC1 [abemaciclib]
[2]; human
  AUC target safe level, Fold change: 1.3 fold
  AUC target safe level, Percent of baseline: 130%
CYP3A4; in vivo
  AUC co-administration levels, Fold change: 16 fold
  AUC co-administration levels, Percent of baseline: 1600%

## CC#CC(=O)N1CCC[C@H]1c1nc(-c2ccc(C(=O)Nc3ccccn3)cc2)c2c(N)nccn12 [acalabrutinib]
[2]; human
  AUC target safe level, Fold change: 2.0 fold
  AUC target safe level, Percent of baseline: 200%
  Cmax target safe level, Fold change: 2.0 fold
  Cmax target safe level, Percent of baseline: 200%
CYP3A4; in vivo
  AUC co-administration levels, Fold change: 5.1 fold
  AUC co-administration levels, Percent of baseline: 510%
  Cmax co-administration levels, Fold change: 3.9 fold
  Cmax co-administration levels, Percent of baseline: 390%

## O=C(NC[C@H]1CN(c2ccc(N3CCOCC3=O)cc2)C(=O)O1)c1ccc(Cl)s1 [rivaroxaban]
[2]; human
  AUC target safe level, Fold change: 1.52 fold
  AUC target safe level, Percent of baseline: 152%
  Cmax target safe level, Percent of baseline: 0%
CYP3A4; in vivo
  AUC co-administration levels, Fold change: 1.76 fold
  AUC co-administration levels, Percent of baseline: 176%
  Cmax co-administration levels, Fold change: 1.56 fold
  Cmax co-administration levels, Percent of baseline: 156%

## O=C(Nc1cnn2ccc(N3CCC[C@@H]3c3cc(F)ccc3F)nc12)N1CC[C@H](O)C1 [larotrectinib]
CYP3A4; in vivo
  AUC co-administration levels, Fold change: 4.3 fold
  AUC co-administration levels, Percent of baseline: 430%
  Cmax co-administration levels, Fold change: 2.8 fold
  Cmax co-administration levels, Percent of baseline: 280%

## C[C@H]1Oc2cc(cnc2N)-c2c(nn(C)c2C#N)CN(C)C(=O)c2ccc(F)cc21 [lorlatinib]
CYP3A4; in vivo
  AUC co-administration levels, Fold change: 1.42 fold
  AUC co-administration levels, Percent of baseline: 142%
  Cmax co-administration levels, Fold change: 1.24 fold
  Cmax co-administration levels, Percent of baseline: 124%

## C=CCN1CC[C@]23c4c5ccc(O)c4O[C@H]2[C@@H](OCCOCCOCCOCCOCCOCCOCCOC)CC[C@@]3(O)[C@H]1C5 [naloxegol]
[2]; [8]
  AUC target safe level, Fold change: 3.41 fold
  AUC target safe level, Percent of baseline: 341%
  Cmax target safe level, Fold change: 2.86 fold
  Cmax target safe level, Percent of baseline: 286%
CYP3A4; [7]
  AUC co-administration levels, Fold change: 12.85 fold
  AUC co-administration levels, Percent of baseline: 1285%
  Cmax co-administration levels, Fold change: 9.58 fold
  Cmax co-administration levels, Percent of baseline: 958%

## CC(C)(C)c1nc(-c2cccc(NS(=O)(=O)c3c(F)cccc3F)c2F)c(-c2ccnc(N)n2)s1 [dabrafenib]
CYP3A4; in vivo
  AUC co-administration levels, Fold change: 1.71 fold
  AUC co-administration levels, Percent of baseline: 171%

## CNC(=O)c1cc(Oc2ccc(NC(=O)Nc3ccc(Cl)c(C(F)(F)F)c3)c(F)c2)ccn1 [regorafenib]
CYP3A4; in vivo
  AUC co-administration levels, Fold change: 1.33 fold
  AUC co-administration levels, Percent of baseline: 133%

## COc1cc(N2CCC(N3CCN(C)CC3)CC2)ccc1Nc1ncc(Cl)c(Nc2ccccc2P(C)(C)=O)n1 [brigatinib]
CYP3A4; in vivo
  AUC co-administration levels, Fold change: 2.01 fold
  AUC co-administration levels, Percent of baseline: 201%
  Cmax co-administration levels, Fold change: 1.21 fold
  Cmax co-administration levels, Percent of baseline: 121%

## CO[C@H]1C(=O)[C@]2(C)[C@@H](OC)C[C@H]3OC[C@@]3(OC(C)=O)[C@H]2[C@H](OC(=O)c2ccccc2)[C@]2(O)C[C@H](OC(=O)[C@H](O)[C@@H](NC(=O)OC(C)(C)C)c3ccccc3)C(C)=C1C2(C)C [cabazitaxel]
CYP3A4; in vivo
  AUC co-administration levels, Fold change: 1.25 fold
  AUC co-administration levels, Percent of baseline: 125%

## C=C[C@@H]1C[C@]1(NC(=O)[C@@H]1C[C@@H]2CN1C(=O)[C@H](C(C)(C)C)NC(=O)O[C@@H]1C[C@H]1CCCCCc1nc3ccc(OC)cc3nc1O2)C(=O)NS(=O)(=O)C1CC1.O [grazoprevir]
CYP3A4; in vivo
  AUC co-administration levels, Fold change: GZR: 3.02 fold
  AUC co-administration levels, Percent of baseline: 302%
  Cmax co-administration levels, Fold change: 1.13 fold
  Cmax co-administration levels, Percent of baseline: 113%

## Cc1cn(-c2cc(NC(=O)c3ccc(C)c(Nc4nccc(-c5cccnc5)n4)c3)cc(C(F)(F)F)c2)cn1 [nilotinib]
CYP3A4; in vivo
  AUC co-administration levels, Fold change: 3 fold
  AUC co-administration levels, Percent of baseline: 300%

## CN(C)C(=O)c1cc2cnc(Nc3ccc(N4CCNCC4)cn3)nc2n1C1CCCC1 [ribociclib]
CYP3A4; in vivo
  AUC co-administration levels, Fold change: 3.2 fold
  AUC co-administration levels, Percent of baseline: 320%
  Cmax co-administration levels, Fold change: 1.7 fold
  Cmax co-administration levels, Percent of baseline: 170%

## COc1cc2c(cc1OC)CC(=O)N(CCCN(C)C[C@H]1Cc3cc(OC)c(OC)cc31)CC2 [ivabradine]
[2]; human
  AUC target safe level, Fold change: 2.1 fold
  AUC target safe level, Percent of baseline: 210%
  Cmax target safe level, Fold change: 1.6 fold
  Cmax target safe level, Percent of baseline: 160%
CYP3A4; in vivo
  AUC co-administration levels, Fold change: 7 fold
  AUC co-administration levels, Percent of baseline: 700%
  Cmax co-administration levels, Fold change: 3.25 fold
  Cmax co-administration levels, Percent of baseline: 325%

## N#Cc1ccnc(N2C(=O)CC[C@H]2C(=O)N(c2cncc(F)c2)[C@H](C(=O)NC2CC(F)(F)C2)c2ccccc2Cl)c1 [ivosidenib]
[2]; human
  AUC target safe level, Fold change: 1.73 fold
  AUC target safe level, Percent of baseline: 173%
  Cmax target safe level, Fold change: 1.52 fold
  Cmax target safe level, Percent of baseline: 152%
CYP3A4; in vivo
  AUC co-administration levels, Fold change: 2.69 fold
  AUC co-administration levels, Percent of baseline: 269%

## CCc1cc(/C(C)=N/OCc2ccc(C3CCCCC3)c(C(F)(F)F)c2)ccc1CN1CC(C(=O)O)C1 [siponimod]
[2]; human
  AUC target safe level, Fold change: 10.4 fold
  AUC target safe level, Percent of baseline: 1040%
CYP3A4; in vivo
  AUC co-administration levels, Fold change: 2 fold
  AUC co-administration levels, Percent of baseline: 200%

Reference: US20230414607A1, “METHODS OF TREATMENT” (BOW RIVER LLC, priority 2017, published 2023)
